From article PMC10022191, “Safety, tolerability, pharmacokinetics, and antiviral activity of the novel core protein allosteric modulator ZM-H1505R (Canocapavir) in chronic hepatitis B patients: a randomized multiple-dose escalation trial” (BMC Medicine, 2023)
Entries after “also recorded” stand apart in the source; their conditions may differ.

How the values were obtained:
[1] = phase 1b trial: plasma pharmacokinetics in CHB patients; details: for mean plasma trough concentration relative to protein-binding adjusted HBV DNA EC50 (135 ng/mL): day 28
Description: Blood samples for Canocapavir PK analysis were collected at different time points, and were collected and placed into a vacutainer with an anticoagulant (K2-EDTA), followed by centrifugation at 2,000 g and 4 °C for 10 min to collect the plasma.
All of these parameters in the treatment cohorts were analyzed using the descriptive statistics methods provided by SAS 9.1 software (Cary, NC, USA). The dose proportionality of Canocapavir was evaluated by the power model and the linear fixed-effect model. Descriptive analysis was used for safety, tolerability and antiviral activity indexes. Please see Additional file 1 for the detailed methodology.
The concentration of Canocapavir was determined using a validated high-performance liquid chromatography-tandem mass spectrometry method of FRONTAGE Laboratories (Shanghai, China), with a detection range of 10–10,000 ng/mL.
Blood samples for Canocapavir PK analysis were collected at different time points, including preadministration (30 min predosing) and 0.5, 1, 2, 3, 4, 6, 8, 12, and 24 h postdosing on day 1; predosing on days 8, 15, 22, 27, and 28; and 0.5, 1, 2, 3, 4, 6, 8, 12, 24, 48, and 72 h postdosing on day 28.

HBV = experiment: phase 1b trial: antiviral activity (serum HBV markers) in CHB patients; type: in vivo, Hepatitis B virus
Description: The changes in the serum levels of HBV DNA, HBV pgRNA, HBcrAg, HBsAg, HBsAb, HBeAg, HBeAb, and HBcAb at different time points were examined. Blood samples were collected on the initial screening day (baseline) and days 1, 8, 15, 22, 29, 43 ± 1, and 57 ± 2 postdosing.
The HBV DNA level was measured using a COBAS TaqMan kit (Roche Diagnostics, Pleasanton, CA, USA), according to the manufacturer’s instructions. The lowest detectable level using this kit was 20 IU/mL. The serum levels of HBeAg and HBsAg were quantitatively assessed by a chemiluminescence method using Abbott Architect assays (Abbott Diagnostics; Abbott Park, IL, USA). The lowest detectable level of the kit for HBeAg and HBsAg were 1 and 0.05 IU/mL, respectively.

[2] = cited from earlier work
[3] = 100 mg q.d., single patient with ALT flare

Structure (SMILES): O=C1CO[C@H](c2cn(-c3ccc(Br)cc3)nc2-c2ccc(F)cc2)N1CCc1ccc2[nH]c(=O)[nH]c2c1 [Canocapavir]
- mean plasma trough concentration relative to protein-binding adjusted HBV DNA EC50 (135 ng/mL) ([1]; 100 mg q.d.): 7.0 fold
- mean plasma trough concentration relative to protein-binding adjusted HBV DNA EC50 (135 ng/mL) ([1]; 200 mg q.d.): 14.6 fold
- power model slope (regression coefficient) of exposure (Cmax and AUC) vs dose ([1]; human, in vivo): 0.82–1.14
- time to maximum concentration (Tmax) ([1]; human, in vivo): 2 to 3 h
- AUC0-∞ ([1]; human, in vivo, 50 mg): 25,625.6 ± 15,804.7 h·ng/mL
- CL/F ([1]; human, in vivo, 50 mg): 3.4 ± 1.5 L/h
- Vz/F ([1]; human, in vivo, 50 mg): 61.4 ± 23.0 L
- t1/2 ([1]; human, in vivo, 50 mg): 13.0 ± 1.9 h
- AUC0-∞ ([1]; human, in vivo, 100 mg): 59,399.0 ± 18,159.0 h·ng/mL
- CL/F ([1]; human, in vivo, 100 mg): 2.5 ± 0.6 L/h
- Tmax ([1]; human, in vivo, 100 mg): 3.0 (2.0, 4.0) h
- Vz/F ([1]; human, in vivo, 100 mg): 42.3 ± 10.9 L
- t1/2 ([1]; human, in vivo, 100 mg): 12.1 ± 3.7 h
- AUC0-∞ ([1]; human, in vivo, 200 mg): 120,090.0 ± 57,318.9 h·ng/mL
- CL/F ([1]; human, in vivo, 200 mg): 3.3 ± 2.0 L/h
- Vz/F ([1]; human, in vivo, 200 mg): 73.6 ± 43.4 L
- mean t1/2 after the last dosage ([1]; human, in vivo, 200 mg): 12.1 to 15.6 h
- t1/2 ([1]; human, in vivo, 200 mg): 15.6 ± 2.3 h
- patients with HBV DNA reduced below the lower limit of quantification (HBV; 50 mg q.d.): 0 number of patients (percentage
- patients with HBV pgRNA reduced below the lower limit of quantification (~ 2 log10 copies/mL) (HBV; 50 mg q.d.): 1 (12.5%) number of patients (percentage
- maximum mean HBcrAg decrease (HBV; 50 mg q.d., 28 days): -0.30 log10 kU/mL
- mean maximum HBV DNA decline from baseline (HBV; 50 mg q.d., 28 days): -1.54 log10 IU/mL
- mean maximum HBV pgRNA decline from baseline (HBV; 50 mg q.d., 28 days): -1.53 log10 copies/mL
- HBV DNA response, subject E2003 with pre-existing HBc P25S substitution (HBV; 50 mg q.d., HBeAg (+) patient): no decrease
- HBV pgRNA response, subject E2003 with pre-existing HBc P25S substitution (HBV; 50 mg q.d., HBeAg (+) patient): only slightly decreased; also recorded: only a slight decrease
- patients with HBV DNA reduced below the lower limit of quantification (HBV; 100 mg q.d.): 1 (12.5%) number of patients (percentage
- patients with HBV pgRNA reduced below the lower limit of quantification (~ 2 log10 copies/mL) (HBV; 100 mg q.d.): 1 (12.5%) number of patients (percentage
- maximum mean HBcrAg decrease (HBV; 100 mg q.d., 28 days): -0.61 log10 kU/mL
- mean maximum HBV DNA decline from baseline (HBV; 100 mg q.d., 28 days): -2.50 log10 IU/mL
- mean maximum HBV pgRNA decline from baseline (HBV; 100 mg q.d., 28 days): -2.35 log10 copies/mL
- maximum decrease of HBV DNA, patient E3010 (HBV; [3]): -3.23 log10 IU/mL
- maximum decrease of HBV pgRNA, patient E3010 (HBV; [3]): -3.71 log10 copies/mL
- maximum decrease of HBcrAg, patient E3010 (HBV; [3]): -1.96 log10 kU/mL
- maximum decrease of HBsAg, patient E3010 (HBV; [3]): -0.22 log10 IU/mL
- patients with HBV DNA reduced below the lower limit of quantification (HBV; 200 mg q.d.): 1 (12.5%) number of patients (percentage
- patients with HBV pgRNA reduced below the lower limit of quantification (~ 2 log10 copies/mL) (HBV; 200 mg q.d.): 4 (50.0%) number of patients (percentage
- maximum mean HBcrAg decrease (HBV; 200 mg q.d., 28 days): -0.51 log10 kU/mL
- mean maximum HBV DNA decline from baseline (HBV; 200 mg q.d., 28 days): -2.75 log10 IU/mL
- mean maximum HBV pgRNA decline from baseline (HBV; 200 mg q.d., 28 days): -2.34 log10 copies/mL
- change of HBeAg level (HBV; 50–200 mg q.d., 28 days): Neither the HBsAg nor HBeAg levels decreased
- change of HBsAg level (HBV; 50–200 mg q.d., 28 days): Neither the HBsAg nor HBeAg levels decreased
- changes in levels of HBsAb, HBeAb, HBcAb (HBV; 50–200 mg q.d., 28 days): no clinically significant changes
- accumulation rate after multiple administration ([2]; healthy subjects): 1.7–2.3
- dose proportionality of mean plasma AUC and Cmax ([2]; healthy subjects): increased in a dose-proportional manner
- food effect on drug absorption ([2]; healthy subjects): Food had an effect on the drug absorption
- half-life after multiple administration ([2]; healthy subjects): 12.2 to 21.7 h
- margin between plasma exposure and anti-HBV activity EC50 in vitro ([2]; healthy subjects): 11.2–37.5 fold
- most common AE ([2]; healthy subjects): increased ALT
- safety and tolerability in healthy subjects ([2]; single doses 25–450 mg, multiple doses 75–300 mg q.d. for 14 days): safe and well tolerated
